Results taken from patent publication US9844535B2, “SHP2 inhibitors and methods of treating autoimmune and/or glomerulonephritis-associated diseases using SHP2 inhibitors” (Indiana University Research and Technology Corporation, priority 2013, dated 2017).

Legend:
[1] = system: circulating blood cells of SLE-prone mice; test: Blood cell counts and circulating lymphocyte subsets; assay type: in vivo, mouse
Method: 50 μl of peripheral blood was collected from mice upon sacrifice and was mixed with 5 mM EDTA anticoagulant to be used for blood cell counts (Hemavet 850FS), to determine numbers of white blood cells (neutrophil, lymphocytes, monocytes, eosinophil and basophil), red blood cells and platelets. In addition, peripheral blood isolated from MRL/lpr mice either treated with vehicle (DMSO) or SHP2 inhibitor was used to count the percentage of lymphocyte subsets, including B cells, CD4+, CD8+ and double negative (DN) T cells through flow cytometry (see below).
(§1) To identify immune cell subsets, isolated cells from tissues were immunostained with mouse antibodies targeted against CD3E (145-2C11, BioLegend, San Diego, Calif.), CD4 (GK1.5, BioLegend), CD8 (53-6.7, eBioscience, San Diego, Calif.), CD45 (30-F11, eBioscience), CD 19 (6125, BioLegend), CD11b (M1170, BioLegend), TCRαβ (H57-597, BioLegend), CD44 (IM7, BioLegend), B220 (RA3-6B2, B.D. […], BD Biosciences, San Jose Calif.), CD138 (281-2, BioLegend), CD38 (CD28.2, BioLegend), Gr-1 (RB6.805, eBioscience), CD62L (DREG-56, BioLegend), and CD25 (PC61, BioLegend) for 30 minutes at 4° C. Samples were acquired on a LSR II flow cytometer (BD Biosciences) and the percentage of each sub-population of cells (B, T, monocytes, macrophage and neutrophils) was assessed by FlowJo [version 7.2.2 (Tree Star)]. Total cell numbers were counted using a hemocytometer. Absolute cell numbers for each sub-population were calculated based on the percentage of each population.

SLE-prone MRL/lpr mice = test: SLE disease progression in MRL/lpr mice (skin, spleen, kidney, thymus, proteinuria, histology, body weight); assay type: in vivo, mouse
Method: Briefly, female MRL/MpJ-fas lpr (MRL/lpr), MRL/Mpj and C57BL/6J mice were purchased from the Jackson Laboratory (Bar Harbor, Me.). For experiments, mice within each group were ip injected with either vehicle (DMSO) or the SHP2 inhibitor (7.5 mg/kg/per day). Testing continued for a period of 6 weeks, starting at 11 weeks of age to 17 weeks. Body weight was measured daily and treatment dosage was adjusted accordingly. At the end of the treatment period, mice were sacrificed with CO2 exsanguination and SLE targeted organs were removed. For each mouse, spleen, kidney, and heart weight were calculated. In addition, total animal body weight and tibia length were measured. Peripheral blood/serum was also collected for use in the cytokine assays described below.
Harvested organs (kidney, spleen, and heart) to be used to assess morphometry and histochemistry were flushed with PBS, perfusion fixed in Bouin's reagent, and paraffin embedded. Sections (5 μm) were stained with Hematoxylin and Eosin (H&E), Periodic acid—Schiff stain (PAS), Masson-Trichrome, or reticulin staining at the Harvard Medical School Rodent Histopathology Core and scored using an unbiased approach, in which histology scores of 1 (normal) to 5 (most severe pathology) were designated to tissue sections which were only numerically labeled and in no particular order (by Dr. Roderick Bronson, director of the Rodent Histopathology Core, Harvard Medical School). Numerical sections were later decoded, marked for their designated score, and statistically analyzed. Images of the tissue sections were obtained and quantified on a Keyence BZ-9000 Microscope (Keyence Corporation, Itasca, Ill.).
To determine kidney function, urine was collected before mice were sacrificed. Albumin and creatinine in the urine were measured using colorimetric assays according to the manufacturer's instructions (Albuwell M; The creatinine companion, Exocell), as described below. The kidney function was calculated as ratio of albumin to creatinine levels.
Albumin and creatinine levels: For the albumin assay, collected mouse urine was diluted at 1:5200× and 50 μl was loaded onto an albumin precoated 96-well plate, followed by primary incubation, secondary incubation and colorimetric determination. For the creatinine assay, the urine was diluted 20× and loaded onto a 96-well plate, and picrate working solution and acid reagent were added sequentially according to protocol. Absorbance was assayed using a plate reader set at a wavelength of 495 nm.
To determine whether inhibition of SHP2 activity affected SLE disease progression, each of the SLE target tissues (i.e., skin, kidney, spleen) was tested in both treated and untreated SLE-prone mice. Particularly, tissues were tested as: WT treated with inhibitor, WT treated with DMSO (vehicle), MRL/mpJ treated with inhibitor, MRL/mpf treated with DMSO (vehicle), MRL/lpr treated with inhibitor, and MRL/lpr treated with DMSO (vehicle).

[2] = system: MRL/lpr mouse kidney immune cells; test: Flow cytometry of immune cells infiltrating the kidney; assay type: in vivo; settings: MRL/lpr mice vs vehicle
Method: Kidney, spleen, lung, and axillary lymph nodes were excised from either vehicle or drug-treated mice, and single cell suspensions were obtained by teasing the organs through a nylon mesh. Briefly, kidneys were cut into small pieces and homogenized on a 70 μm nylon mesh in 5 ml of Hank's Balanced Salt Solution (HBSS) buffer. All of the homogenized tissues and cells were transferred to new 50 ml tubes and digested with collagenase type 4 (100 ug/ml) (Worthington Biochemical Corp., Freehold, N.J.) in HBSS for 30 minutes to 2 hours (37° C.) on a rotating shaker. After digestion, the cells were centrifuged at 2000 rpm for 10 minutes, and the kidney cell isolates were generated, which included infiltrated immune cell subsets.
as §1
B cells, T cells, macrophage and neutrophils from the MRL/lpr inhibitor-treated and vehicle-treated mouse kidneys of Example 9 were isolated.

SLE-prone mice hearts = test: Echocardiography; assay type: in vivo, mouse; settings: vs vehicle-treated SLE mice
Method: Transthoracic echocardiography was conducted on non-anesthetized animals as described previously in Marin et al., J Clin Invest. 2011; 121:1026-1043, with a 13-MHz probe (Vivid 7, GE Medical Systems, Boston, Mass.) or VisualSonics Vevo 770 high-frequency ultrasound rodent imaging system (VisualSonics, Toronto, Ontario). GE Medical Systems or VisualSonics Vevo 770 software was used for data acquisition and subsequent analysis. Hearts were imaged in the 2-dimensional parasternal short-axis view, and an M-mode echocardiogram of the midventricular region was recorded at the level of the papillary muscles. Calculations of cardiac anatomic and functional parameters were carried out as described in Marin et al., J Clin Invest. 2011; 121:1026-1043.

[3] = MRL/lpr mice, treatment for 6 weeks

Cn1c(-c2cccc(NC(=O)C(=O)Nc3ccc(-c4ccsc4)cc3)c2)c(I)c2cc(C(=O)O)c(O)cc21 [11a-1] was tested. Which “circulating CD4 and CD8 positive T cell populations” value ([1]; SLE mice) did it give?
Its value is “not the CD4 and CD8 positive T cell populations”.

What about the “circulating T cell leukocyte population” value ([1]; SLE mice) of the same compound?
The value was “significantly altered in SLE and inhibited”.

What about the “circulating double negative T cells” value ([1]; SLE mice) of the same compound?
Its value is “only the double negative cells”.

What about the circulating leukocytes ([1]; SLE mice vs vehicle) of the same compound?
Its circulating leukocytes is “significantly reduced”.

And the “circulating neutrophils, monocytes, eosinophils, basophils” value ([1]; SLE mice vs vehicle)?
Its value is “not neutrophils, monocytes, eosinophils, or basophils”.

And the “red blood cells or platelets” value ([1]; SLE mice vs vehicle)?
The value was “no effects observed”.

What about the “white blood cell (WBC) population” value ([1]; SLE mice vs vehicle) of the same compound?
Its value is “specifically targets the white blood cell (WBC) population”.

And the “cytotoxic effects during the treatment period” value (SLE-prone MRL/lpr mice; 7.5 mg/kg/day)?
Its value is “no obvious cytotoxic effects”.

And the “SLE-related disease phenotype in the kidney (histology: glomerulonephritis, fibrosis, immune cell infiltration)” value (SLE-prone MRL/lpr mice; MRL/lpr mice)?
Its value is “prevented the development of this SLE-related disease phenotype in the kidney”.

And the “unbiased histopathological scoring of kidney” value (SLE-prone MRL/lpr mice; MRL/lpr mice)?
Its value is “quantifiably prevented the development of SLE-related disease phenotype”.

And the kidney size (SLE-prone MRL/lpr mice; [3])?
Its kidney size is “normalized the kidney to a size”.

What about the “splenomegaly (spleen size and weight)” value (SLE-prone MRL/lpr mice; [3]) of the same compound?
The value was “reduced splenomegaly”.

What about the “PAS staining of kidney tissue” value (SLE-prone MRL/lpr mice; SLE kidneys) of the same compound?
The value was “decreased inflammatory infiltration in the tissue, smaller glomeruli, decreased fibrosis, and decreased numbers of mesangial cells surrounding the glomerulus”.

And the proteinuria (SLE-prone MRL/lpr mice; SLE mice vs vehicle-treated)?
The proteinuria was “significant reduction in proteinuria”.

What about the thymus size (SLE-prone MRL/lpr mice; SLE-prone mice) of the same compound?
Its thymus size is “decreased thymus size”.

What about the skin lesions/inflammation (SLE-prone MRL/lpr mice; SLE-prone mice, 7.5 mg/kg/day) of the same compound?
Its skin lesions/inflammation is “reduced the skin lesions/inflammation”.

And the “body weight during treatment period” value (SLE-prone MRL/lpr mice; mice, 7.5 mg/kg/day ip)?
Its value is “no change in body weight”.

And the “B cells in kidney” value [2]?
The value was “no discernable differences”.

What about the “infiltrating T cells in the SLE kidney” value [2] of the same compound?
Its value is “significantly reducing the overall number of CD4, CD8, and double-negative T cells”.

What about the “infiltrating neutrophils and macrophages in kidney” value [2] of the same compound?
The value was “significant reduction in numbers of infiltrating neutrophils and macrophages”.

What about the cardiac functional parameters (SLE-prone mice hearts) of the same compound?
Its cardiac functional parameters is “significantly improved functional parameters”.

What about the “left ventricular chamber dimension” value (SLE-prone mice hearts) of the same compound?
Its value is “decreased chamber”.

And the posterior wall thickness (SLE-prone mice hearts)?
Its posterior wall thickness is “increased posterior wall measurements”.
